Assay results reported in article PMC7179227, “Antigenotoxic, Anti-photogenotoxic, and Antioxidant Properties of Polyscias filicifolia Shoots Cultivated In Vitro” (Molecules, 2020).
Where two headings read alike, the source gives them in different places.

Key:
MMC genotoxicity = conditions: CGA 5 and 50 μM, MMC 0.9 μM (0.3 μg/mL); cited from earlier work
[1] = test system: S. typhimurium TA1535/pSK1002
Procedure: (§1) IR was calculated on the basis of spectrophotometric measurement.
The anti-photogenotoxicity was determined using chlorpromazine (CPZ) as an agent inducing genotoxic response under UVA irradiation by forming an unstable promazyl radical which is able to bind to DNA [62]. The protocol developed by Skrzypczak et. al was applied. […] The rate of anti-photogenotoxicity was calculated using the same formula as the rate of antigenotoxicity.

[2] = test system: S. typhimurium TA1535/pSK1002; remark: listed apart in the source
Procedure: Metabolic activation was obtained with S9 fraction prepared from livers of male Sprague Dawley rats. […] After isolation, the evaluation of cytochrome p450 level was performed and samples were stored at −80 ^∘ C. The S9 mix was prepared according to the method described by Maron and Ames.
as §1

[3] = test system: S. typhimurium TA1535/pSK1002; conditions: −S9, highest tested concentration 10 μg/mL
Procedure: as §1

[4] = test system: S. typhimurium TA1535/pSK1002; assay type: cell-based, Salmonella typhimurium
Procedure: as §1

[5] = test system: S. typhimurium TA1535/pSK1002; conditions: mixture with 4NQO 0.05 μg/mL
Procedure: Salmonella typhimurium strain TA1535/pSK1002 was purchased from Deutsche Sammlung von Mikroorganismen und Zellkulturen GmbH (DSMZ, Germany).
The strain used in the test carries the fusion of umuC and lacZ genes, which are placed at the plasmid pSK1002. […] In the present study, the umu-test was carried out in the micro-plate variant according to the ISOguideline [61]. β -galactosidase activity of the tested compound was presented as induction ratio (IR). IR was calculated as the β -galactosidase activity of the tested compound relative to the negative control.
IR was calculated on the basis of spectrophotometric measurement. The absorption at 420 nm indicated the intensity of the enzymatic reaction, and the optical density at 600 nm indicated the bacteria growth. The measurements were performed with an Asys UVM340 Hightech microplate spectrophotometer.
At the same time, the genotoxicity of PhAs (10 μ g/mL) and EXTs (0.25–2 mg/mL) was investigated.

[6] = test system: S. typhimurium TA98 strain; conditions: against 4NQO; cited from earlier work
[7] = mixture with CPZ 5 μg/mL, UVA, PhA 5 μg/mL
[8] = mixture with CPZ 5 μg/mL, UVA, PhA 10 μg/mL
[9] = mixture with CPZ 5 μg/mL, UVA, PhA […]
[10] = mixture with CPZ 10 μg/mL, UVA, PhA 5 μg/mL
[11] = mixture with CPZ 10 μg/mL, UVA, PhA 10 μg/mL
[12] = mixture with CPZ 10 μg/mL, UVA, PhA […]
[13] = +S9, highest tested concentration 10 μg/mL
[14] = mixture with 2AA 1 μg/mL, PhA concentration 0.3125 (mg/mL)
[15] = mixture with 2AA 1 μg/mL, PhA concentration 0.625 (mg/mL)
[16] = mixture with 2AA 1 μg/mL, PhA concentration 1.25 (mg/mL)
[17] = mixture with 2AA 1 μg/mL, PhA concentration 2.5 (mg/mL)
[18] = mixture with 2AA 1 μg/mL, PhA concentration 5 (mg/mL)
[19] = mixture with 2AA 1 μg/mL, PhA concentration 10 (mg/mL)
[20] = mixture with 2AA 10 μg/mL, PhA concentration 0.3125 (mg/mL)
[21] = mixture with 2AA 10 μg/mL, PhA concentration 0.625 (mg/mL)
[22] = mixture with 2AA 10 μg/mL, PhA concentration 1.25 (mg/mL)
[23] = mixture with 2AA 10 μg/mL, PhA concentration 2.5 (mg/mL)
[24] = mixture with 2AA 10 μg/mL, PhA concentration 5 (mg/mL)
[25] = mixture with 2AA 10 μg/mL, PhA concentration 10 (mg/mL)
[26] = mixture with MMC 0.004 μg/mL, PhA 5 μg/mL
[27] = mixture with MMC 0.004 μg/mL, PhA 10 μg/mL
[28] = mixture with MMC 0.004 μg/mL, PhA […]
[29] = mixture with MMC 0.02 μg/mL, PhA 5 μg/mL
[30] = mixture with MMC 0.02 μg/mL, PhA 10 μg/mL
[31] = mixture with MMC 0.02 μg/mL, PhA […]

Structure (SMILES) | Anti-Photogenotox. ([1]; CPZ 5 μg/mL, UVA, PhA […]) [%] | Anti-Photogenotox. ([1]; CPZ 10 μg/mL, UVA, PhA […]) [%] | IR (mean ± SD) [1, 7] | IR (mean ± SD) [1, 8] | IR (mean ± SD) [1, 9] | IR (mean ± SD) [1, 10] | IR (mean ± SD) [1, 11] | IR (mean ± SD) [1, 12] | IR (mean ± SD) [2, 13] | IR (mean ± SD) [2, 14] | IR (mean ± SD) [2, 15] | IR (mean ± SD) [2, 16] | IR (mean ± SD) [2, 17] | IR (mean ± SD) [2, 18] | IR (mean ± SD) [2, 19] | IR (mean ± SD) [2, 20] | IR (mean ± SD) [2, 21] | IR (mean ± SD) [2, 22] | IR (mean ± SD) [2, 23] | IR (mean ± SD) [2, 24] | also measured
O=C(/C=C/c1ccc(O)c(O)c1)O[C@@H]1C[C@](O)(C(=O)O)C[C@@H](O)[C@H]1O [CGA, Chlorogenic acid] |  |  |  |  |  |  |  |  |  |  |  |  |  |  |  |  |  |  |  |  | inhibition of MMC genotoxicity (MMC genotoxicity): 65%
O=C(O)/C=C/c1ccc(O)c(O)c1 [CA, caffeic acid] | 11 | 10 | 3.3 ± 0.33 | 3.4 ± 0.25 | 3.2 ± 0.40 | 5 ± 1.2 | 4.9 ± 0.90 | 4.5 ± 0.49 | 1.0 ± 0.11 | 3 ± 1.0 | 3.1 ± 0.55 | 3.1 ± 0.29 | 3.1 ± 0.53 | 3.7 ± 0.77 | 3.8 ± 0.85 | 2.8 ± 0.60 | 3.4 ± 0.90 | 2.7 ± 0.34 | 3.2 ± 0.51 | 3.6 ± 0.89 | Antigenotox. ([2]; 2AA 10 μg/mL, PhA concentration 1.25 (mg/mL)): 24%; IR (mean ± SD) [2, 25]: 3.7 ± 0.80; IR (mean ± SD) [3]: 1.1 ± 0.16; IR (mean ± SD) [4, 26]: 2.7 ± 0.81; IR (mean ± SD) [4, 27]: 2.3 ± 0.67; IR (mean ± SD) [4, 28]: 2.5 ± 0.75; IR (mean ± SD) [4, 29]: 5 ± 1.1; IR (mean ± SD) [4, 30]: 5 ± 1.2; IR (mean ± SD) [4, 31]: 5 ± 1.2; IR (mean ± SD) ([5]; PhA 5 μg/mL): 3.7 ± 0.69; IR (mean ± SD) ([5]; PhA 10 μg/mL): 3.9 ± 0.99; reduction of the number of revertants [6]: 28%
Nc1ccc2cc3ccccc3cc2c1 [2AA, 2-aminoanthracene] |  |  |  |  |  |  |  |  |  |  |  |  |  |  |  |  |  |  |  |  | IR (mean ± SD) ([2]; control: 2AA 1 μg/mL alone, +S9, experiments with PhAs): 3.37 ± 0.72; IR (mean ± SD) ([2]; control: 2AA 1 μg/mL alone, +S9, experiments with extracts): 4.5 ± 0.99; IR (mean ± SD) ([2]; control: 2AA 10 μg/mL alone, +S9, experiments with PhAs): 4 ± 1.3; IR (mean ± SD) ([2]; control: 2AA 10 μg/mL alone, +S9, experiments with extracts): 6 ± 1.5
COc1cc(/C=C/C(=O)O)ccc1O [FA, ferulic acid] | 20 | 14 | 3.0 ± 0.37 | 3.2 ± 0.20 | 3.0 ± 0.41 | 4.5 ± 0.73 | 4.3 ± 0.46 | 4 ± 1.1 | 1.1 ± 0.14 | 3.1 ± 0.73 | 2.7 ± 0.37 | 2.9 ± 0.66 | 2.8 ± 0.58 | 3.4 ± 0.96 | 4 ± 1.0 | 2.9 ± 0.43 | 3.1 ± 0.75 | 3.3 ± 0.63 | 3.2 ± 0.45 | 4 ± 1.3 | Anti-Photogenotox. ([1]; CPZ 5 μg/mL, UVA, PhA 5 μg/mL): 15%; Anti-Photogenotox. ([1]; CPZ 5 μg/mL, UVA, PhA 10 μg/mL): 11%; Anti-Photogenotox. ([1]; CPZ 10 μg/mL, UVA, PhA 10 μg/mL): 15%; Antigenotox. ([2]; 2AA 1 μg/mL, PhA concentration 0.625 (mg/mL)): 19%; IR (mean ± SD) [2, 25]: 5 ± 1.4; IR (mean ± SD) [3]: 1.2 ± 0.10; IR (mean ± SD) [4, 26]: 2.5 ± 0.62; IR (mean ± SD) [4, 27]: 2.3 ± 0.51; IR (mean ± SD) [4, 28]: 2.6 ± 0.93; IR (mean ± SD) [4, 29]: 5 ± 1.2; IR (mean ± SD) [4, 30]: 5 ± 1.2; IR (mean ± SD) [4, 31]: 5 ± 1.2; IR (mean ± SD) ([5]; PhA 5 μg/mL): 3.6 ± 0.67; IR (mean ± SD) ([5]; PhA 10 μg/mL): 4.0 ± 0.70
CN(C)CCCN1c2ccccc2Sc2ccc(Cl)cc21 [CPZ, chlorpromazine] |  |  |  |  |  |  |  |  |  |  |  |  |  |  |  |  |  |  |  |  | IR (mean ± SD) ([1]; control: CPZ 5 μg/mL alone, UVA irradiation): 3.6 ± 0.40; IR (mean ± SD) ([1]; control: CPZ 10 μg/mL alone, UVA irradiation): 5.1 ± 0.78
